Like-named read-outs stand apart in the source and are kept apart here.
Tests used:
[1] = cited from earlier work
[2] = tested on: callous of three week-old fractures of tibia; assay: Localization in callous of three week-old tibial fractures (rabbits), compared with strontium-85; assay type: in vivo, albino rabbits
Description: Adult New Zealand albino rabbits having an average weight of 3.8 kg were utilized. Strontium-85 was employed as a standard for comparison. In a typical experiment 20-250 μCi (i.e., containing approximately 1 mg/kg as the free acid of body weight) of 99mTc EHDP were injected intravenously into the rabbits through the marginal ear vein and compared with 10-20 μ Ci 85 Sr chloride administered simutaneously. Each dosage is contained in a volume of 1 ml.
The animals were sacrificed serially from 1 to 24 hours after injection and the activities in major organs were determined by counting multiple samples from each organ in a scintillation well counter (the technetium-99m counts were corrected for the Compton contributions from the strontium-85 activity in the technetium-99m energy window). Multiple samples were counted from the tibia, femur, spine and pelvic bones; the total activity in the skeleton was estimated by assuming the whole skeleton consisted of equal proportions by weight of tibia, spine, femur and pelvis and that the skeletal mass was 10% of the body weight. The red marrow was sampled from the femur and the total marrow was assumed to be 2.2% of the total body weight. Similarly, blood volume was assumed to be 7% and the skeletal muscle 43% of the body weight. The whole liver and both kidneys were weighed and multiple samples from each were counted to measure the total activity in each organ.
In another series of experiments carried out as described above, localization of technetium from its tin-phosphonate complex was determined in the callous of three week-old fractures of tibia in albino rabbits, again in comparison with strontium-85. Comparative radioassay of technetium-99m administered as the pertechnetate was measured in the callous of tibial fractures in rabbits at one and four hours after administration.

[3] = 2 Hrs
[4] = Simultaneous distribution of 99mTc-EHDP and 85Sr in rabbits at 1-24 hours after intravenous injection; assay type: in vivo, adult New Zealand albino rabbits; conditions: for Blood, % Dose in Whole Organ: blood as 7 % of body weight; for Bone(Avg), % dose in whole organ: bone as 10 % of body weight; for Marrow, % Dose in Whole Organ: marrow as 2.2 % of body weight
Description: Adult New Zealand albino rabbits having an average weight of 3.8 kg were utilized. Strontium-85 was employed as a standard for comparison. […] Each dosage is contained in a volume of 1 ml.
Multiple samples were counted from the tibia, femur, spine and pelvic bones; the total activity in the skeleton was estimated by assuming the whole skeleton consisted of equal proportions by weight of tibia, spine, femur and pelvis and that the skeletal mass was 10% of the body weight. […] The whole liver and both kidneys were weighed and multiple samples from each were counted to measure the total activity in each organ.

Substance: technetium-99m
- external photon yield ([1]; gamma emission of 140 KeV): 90%
- half-life of radionuclide ([1]; radioactive decay): 6 h

Substance: tin-1-hydroxy-ethane-1,1-diphosphonate [99mTc-EHDP]
- Callus, % dose / 1 % body weight ([2]; 1 Hr): 24.7 % dose / 1 % body weight
- Callus, % dose / 1 % body weight ([2]; 4 Hrs): 28.9 % dose / 1 % body weight
- concentration in the callous compared with 85Sr ([2]; rabbits): somewhat lower than that of 85 Sr
- Blood, % Dose in Whole Organ ([3]; EHDP 0.01 mg/kg): 0.99 % Dose
- Kidneys, % Dose in Whole Organ ([3]; EHDP 0.01 mg/kg): 0.81 % Dose
- Liver, % Dose in Whole Organ ([3]; EHDP 0.01 mg/kg): 0.53 % Dose
- Marrow, % Dose in Whole Organ ([3]; EHDP 0.01 mg/kg): 0.34 % Dose
- Muscle, % Dose in Whole Organ ([3]; EHDP 0.01 mg/kg): 0.78 % Dose
- One Femur, % Dose in Whole Organ ([3]; EHDP 0.01 mg/kg): 2.20 % Dose
- One Tibia, % Dose in Whole Organ ([3]; EHDP 0.01 mg/kg): 2.05 % Dose
- Urine, % Dose ([3]; EHDP 0.01 mg/kg): 46.7 % Dose
- Blood, % Dose in Whole Organ ([3]; EHDP 0.05 mg/kg): 1.35 % Dose
- Kidneys, % Dose in Whole Organ ([3]; EHDP 0.05 mg/kg): 2.9 % Dose
- Liver, % Dose in Whole Organ ([3]; EHDP 0.05 mg/kg): 1.61 % Dose
- Marrow, % Dose in Whole Organ ([3]; EHDP 0.05 mg/kg): 0.78 % Dose
- Muscle, % Dose in Whole Organ ([3]; EHDP 0.05 mg/kg): 1.33 % Dose
- One Femur, % Dose in Whole Organ ([3]; EHDP 0.05 mg/kg): 2.44 % Dose
- One Tibia, % Dose in Whole Organ ([3]; EHDP 0.05 mg/kg): 2.22 % Dose
- Urine, % Dose ([3]; EHDP 0.05 mg/kg): 37.3 % Dose
- Blood, % Dose in Whole Organ ([3]; EHDP 0.1 mg/kg): 1.02 % Dose
- Kidneys, % Dose in Whole Organ ([3]; EHDP 0.1 mg/kg): 0.63 % Dose
- Liver, % Dose in Whole Organ ([3]; EHDP 0.1 mg/kg): 0.19 % Dose
- Marrow, % Dose in Whole Organ ([3]; EHDP 0.1 mg/kg): 0.20 % Dose
- Muscle, % Dose in Whole Organ ([3]; EHDP 0.1 mg/kg): 0.98 % Dose
- One Femur, % Dose in Whole Organ ([3]; EHDP 0.1 mg/kg): 2.82 % Dose
- One Tibia, % Dose in Whole Organ ([3]; EHDP 0.1 mg/kg): 2.44 % Dose
- Urine, % Dose ([3]; EHDP 0.1 mg/kg): 30.4 % Dose
- Blood, % Dose in Whole Organ ([3]; EHDP 0.5 mg/kg): 1.503 % Dose
- Kidneys, % Dose in Whole Organ ([3]; EHDP 0.5 mg/kg): 1.10 % Dose
- Liver, % Dose in Whole Organ ([3]; EHDP 0.5 mg/kg): 0.260 % Dose
- Marrow, % Dose in Whole Organ ([3]; EHDP 0.5 mg/kg): 0.19 % Dose
- Muscle, % Dose in Whole Organ ([3]; EHDP 0.5 mg/kg): 1.22 % Dose
- One Femur, % Dose in Whole Organ ([3]; EHDP 0.5 mg/kg): 1.75 % Dose
- One Tibia, % Dose in Whole Organ ([3]; EHDP 0.5 mg/kg): 1.43 % Dose
- Urine, % Dose ([3]; EHDP 0.5 mg/kg): 55.37 % Dose
- Blood, % dose / 1 % body weight ([4]; 1 Hr): 1.23 % dose / 1 % body weight
- Bone(Avg), % dose / 1 % body weight ([4]; 1 Hr): 4.66 % dose / 1 % body weight
- Femur, % dose / 1 % body weight ([4]; 1 Hr): 3.85 % dose / 1 % body weight
- Kidneys, % Dose in Whole Organ ([4]; 1 Hr): 2.40 % dose
- Kidneys, % dose / 1 % body weight ([4]; 1 Hr): 3.93 % dose / 1 % body weight
- Liver, % Dose in Whole Organ ([4]; 1 Hr): 0.80 % dose
- Liver, % dose / 1 % body weight ([4]; 1 Hr): 0.30 % dose / 1 % body weight
- Marrow, % dose / 1 % body weight ([4]; 1 Hr): 0.36 % dose / 1 % body weight
- Muscle, % dose / 1 % body weight ([4]; 1 Hr): 0.15 % dose / 1 % body weight
- One Femur, % Dose in Whole Organ ([4]; 1 Hr): 0.82 % dose
- Pelvis, % dose / 1 % body weight ([4]; 1 Hr): 7.15 % dose / 1 % body weight
- Spine, % dose / 1 % body weight ([4]; 1 Hr): 5.87 % dose / 1 % body weight
- Tibia, % dose / 1 % body weight ([4]; 1 Hr): 2.17 % dose / 1 % body weight
- Urine, % Dose ([4]; 1 Hr): 30.9 % dose
- Blood, % Dose in Whole Organ ([4]; 1 Hr): 8.61 % dose
- Bone(Avg), % dose in whole organ ([4]; 1 Hr): 46.6 % dose
- Marrow, % Dose in Whole Organ ([4]; 1 Hr): 0.70 % dose
- Blood, % dose / 1 % body weight ([4]; 2 Hrs): 0.37 % dose / 1 % body weight
- Bone(Avg), % dose / 1 % body weight ([4]; 2 Hrs): 4.82 % dose / 1 % body weight
- Femur, % dose / 1 % body weight ([4]; 2 Hrs): 3.94 % dose / 1 % body weight
- Kidneys, % Dose in Whole Organ ([4]; 2 Hrs): 1.22 % dose
- Kidneys, % dose / 1 % body weight ([4]; 2 Hrs): 2.72 % dose / 1 % body weight
- Liver, % Dose in Whole Organ ([4]; 2 Hrs): 0.42 % dose
- Liver, % dose / 1 % body weight ([4]; 2 Hrs): 0.18 % dose / 1 % body weight
- Marrow, % dose / 1 % body weight ([4]; 2 Hrs): 0.17 % dose / 1 % body weight
- Muscle, % dose / 1 % body weight ([4]; 2 Hrs): 0.04 % dose / 1 % body weight
- One Femur, % Dose in Whole Organ ([4]; 2 Hrs): 0.84 % dose
- Pelvis, % dose / 1 % body weight ([4]; 2 Hrs): 7.40 % dose / 1 % body weight
- Spine, % dose / 1 % body weight ([4]; 2 Hrs): 5.44 % dose / 1 % body weight
- Tibia, % dose / 1 % body weight ([4]; 2 Hrs): 2.49 % dose / 1 % body weight
- Urine, % Dose ([4]; 2 Hrs, 1 mg/kg): 51.8 % dose
- Blood, % Dose in Whole Organ ([4]; 2 Hrs): 2.58 % dose
- Bone(Avg), % dose in whole organ ([4]; 2 Hrs): 48.2 % dose
- Marrow, % Dose in Whole Organ ([4]; 2 Hrs): 0.38 % dose
- Blood, % dose / 1 % body weight ([4]; 4 Hrs): 0.13 % dose / 1 % body weight
- Bone(Avg), % dose / 1 % body weight ([4]; 4 Hrs): 4.74 % dose / 1 % body weight
- Femur, % dose / 1 % body weight ([4]; 4 Hrs): 3.86 % dose / 1 % body weight
- Kidneys, % Dose in Whole Organ ([4]; 4 Hrs): 0.94 % dose
- Kidneys, % dose / 1 % body weight ([4]; 4 Hrs): 1.95 % dose / 1 % body weight
- Liver, % Dose in Whole Organ ([4]; 4 Hrs): 0.28 % dose
- Liver, % dose / 1 % body weight ([4]; 4 Hrs): 0.11 % dose / 1 % body weight
- Marrow, % dose / 1 % body weight ([4]; 4 Hrs): 0.38 % dose / 1 % body weight
- Muscle, % dose / 1 % body weight ([4]; 4 Hrs): 0.03 % dose / 1 % body weight
- One Femur, % Dose in Whole Organ ([4]; 4 Hrs): 0.81 % dose
- Pelvis, % dose / 1 % body weight ([4]; 4 Hrs): 7.41 % dose / 1 % body weight
- Spine, % dose / 1 % body weight ([4]; 4 Hrs): 5.52 % dose / 1 % body weight
- Tibia, % dose / 1 % body weight ([4]; 4 Hrs): 2.16 % dose / 1 % body weight
- Urine, % Dose ([4]; 4 Hrs, 1 mg/kg): 53.4 % dose
- Blood, % Dose in Whole Organ ([4]; 4 Hrs): 0.89 % dose
- Bone(Avg), % dose in whole organ ([4]; 4 Hrs): 47.4 % dose
- Marrow, % Dose in Whole Organ ([4]; 4 Hrs): 0.83 % dose
- Blood, % dose / 1 % body weight ([4]; 24 Hrs): 0.07 % dose / 1 % body weight
- Bone(Avg), % dose / 1 % body weight ([4]; 24 Hrs): 4.14 % dose / 1 % body weight
- Femur, % dose / 1 % body weight ([4]; 24 Hrs): 3.42 % dose / 1 % body weight
- Kidneys, % Dose in Whole Organ ([4]; 24 Hrs): 0.63 % dose
- Kidneys, % dose / 1 % body weight ([4]; 24 Hrs): 1.29 % dose / 1 % body weight
- Liver, % Dose in Whole Organ ([4]; 24 Hrs): 0.43 % dose
- Liver, % dose / 1 % body weight ([4]; 24 Hrs): 0.28 % dose / 1 % body weight
- Marrow, % dose / 1 % body weight ([4]; 24 Hrs): 0.19 % dose / 1 % body weight
- Muscle, % dose / 1 % body weight ([4]; 24 Hrs): 0.02 % dose / 1 % body weight
- One Femur, % Dose in Whole Organ ([4]; 24 Hrs): 0.76 % dose
- Pelvis, % dose / 1 % body weight ([4]; 24 Hrs): 5.70 % dose / 1 % body weight
- Spine, % dose / 1 % body weight ([4]; 24 Hrs): 5.30 % dose / 1 % body weight
- Tibia, % dose / 1 % body weight ([4]; 24 Hrs): 2.10 % dose / 1 % body weight
- Blood, % Dose in Whole Organ ([4]; 24 Hrs): 0.49 % dose
- Bone(Avg), % dose in whole organ ([4]; 24 Hrs): 41.5 % dose
- Marrow, % Dose in Whole Organ ([4]; 24 Hrs): 0.42 % dose
- skeletal concentrations compared with 85Sr ([4]; rabbits): similar
- soft tissue and blood concentrations compared with 85Sr ([4]; various times, rabbits): much lower than those for 85 Sr
